From US12617752B2, “Rapidly metabolized lipid compound” (Beijing Jitai Life Sciences Ltd, priority 2023, dated 2026)

How the values were obtained:
[1] = Particle size and PDI of lipid nanoparticles by dynamic light scattering; assay type: physicochemical; conditions: lipid nanoparticles with luciferase mRNA; ionizable lipid/cholesterol/DSPC/DMG-PEG2000 50/38.5/10/1.5 mol%
Experimental: (§1) Lipid nanoparticles were prepared by (1) dissolving and mixing ionizable lipid compounds, cholesterol, phospholipids and polyethylene glycolated lipids in ethanol at (molar percentages) 50%, 38.5%, 10% and 1.5%, respectively; (2) dissolving the mRNA active ingredient in 25 mM sodium acetate solution (pH=4.5); (3) using an automated high-throughput microfluidic system to mix the organic phase containing the lipid mixture and the aqueous phase containing the mRNA component in the flow ratio range of 1:1 to 1:4 at a mixing speed of 10 mL/min to 18 mL/min; (4) the prepared lipid nanoparticles (N/P ratio=6) were diluted with phosphate buffer solution and the nanoparticle solutions were ultrafiltered to the original preparation volume using ultrafiltration tubes (purchased from Millipore) with a cut-off molecular weight of 30 kDa; and (5) the obtained nanoparticles were filtered through a sterile 0.2 μm filter membrane and then stored in a sealed glass vial at low temperature.
(§2) The particle size and particle size dispersity index (PDI) of the prepared lipid nanoparticles were measured using a Zetasizer Pro (purchased from Malvern Instruments Ltd) and a DynaPro NanoStar (purchased from Wyatt) dynamic light scattering instrument. The degree of RNA encapsulation by lipid nanoparticles was characterized by the Encapsulation Efficiency %, which reflects the degree of binding of lipid nanoparticles to RNA fragments. This parameter was measured by the method of Quant-it™ RiboGreen RNA Assay (purchased from Invitrogen). Lipid nanoparticle samples were diluted in TE buffer (10 mM Tris-HCl, 1 mM EDTA, pH=7.5). A portion of the sample solution was removed, to which 0.5% Triton (Triton X-100) was added, and then allowed to stand at 37° C. for 30 minutes. Immediately after the addition of RIBOGREEN® reaction solution, the fluorescence values were read on a Varioskan LUX multifunctional microplate reader (purchased from Thermofisher) at 485 nm for absorption and 528 nm for emission to give the encapsulation efficiency values.

[2] = Encapsulation efficiency of lipid nanoparticles (Quant-it RiboGreen RNA Assay); assay type: physicochemical; conditions: lipid nanoparticles with luciferase mRNA
Experimental: as §1, §2

C57BL/6 mice = experiment: In vivo delivery of luciferase mRNA lipid nanoparticles in mice (bioluminescence imaging); conditions: intravenous, single dose 0.5 mg/kg luciferase mRNA
Experimental: The delivery effect and safety of nanoparticles encapsulated with luciferase mRNA (Trilink, L-7202) in mice were evaluated. The test mice were SPF-grade C57BL/6 mice, female, 6-8 weeks old, weighing 18-22 g, and were purchased from SPF (Beijing) Biotechnology Co., Ltd. All animals were acclimatized for more than 7 days prior to the experiment, and had free access to food and water during the experiment. The conditions include alternating light and dark for 12/12 h, the indoor temperature of 20-26° C. and the humidity of 40-70%. The mice were randomly grouped. The lipid nanoparticles encapsulated with luciferase mRNA prepared above were injected into mice by intravenous administration at a single dose of 0.5 mg/kg mRNA, and the mice were subjected to in vivo bioluminescence assay using a Small Animal In Vivo Imaging System (IVIS LUMINA III, purchased from PerkinElmer) at 6 h after administration. The assay was performed as follows: D-luciferin solution was prepared in saline at a concentration of 15 mg/mL, and each mouse was given the substrate by intraperitoneal injection. At ten minutes after administration of the substrate, the mice were anesthetized in an anesthesia chamber with isoflurane at a concentration of 2.5%. The anesthetized mice were placed in IVIS for fluorescence imaging, and data acquisition and analysis were performed on the concentrated distribution area of fluorescence.
The in vivo delivery efficiency of lipid nanoparticle carriers was expressed as the mean values of fluorescence intensity and total photon count in different animals within the same subject group, as shown in Table 5-Table 11. Higher values of fluorescence intensity and total photon count indicate higher in vivo delivery efficiency of this mRNA fragment by lipid nanoparticles. The lipid nanoparticles containing the cationic lipids of the present disclosure have good in vivo delivery efficiency.

Structure (SMILES) | Particle size (nm) [1] [nm] | Particle-size distribution (PDI) [1] | Encapsulation efficiency (%) [2] [%] | Total photon count in vivo at 6 hours after administration (Total Flux) (C57BL/6 mice)
CCCCCCCCCCCOC(=O)CCCCCN(CCO)CCCCCCC(C)(C)C(=O)OCC(CCCCCCC)CCCCCCC [14a] | 90.99 | 0.012 | 91.67 | 1.09E+11
CCCCCCCCCC(=O)OCC1(CCCCCN(CCO)CCCCCCCC(=O)OC(CCCCCCCC)CCCCCCCC)CC1 [14b] | 99.73 | 0.013 | 83.54 | 1.05E+11
CCCCCCCCCCCOC(=O)CCCCCN(CCO)CCCCCCC(C)(C)C(=O)OCCC(CCCCCC)CCCCCC [15a] | 95.94 | 0.021 | 90.77 | 4.15E+10
CCCCCCCCCC(=O)OCC1(CCCCCN(CCCCO)CCCCCCCC(=O)OC(CCCCCCCC)CCCCCCCC)CC1 [15b] | 120.27 | 0.015 | 69.69 | 8.22E+10
CCCCCCCCCCC(=O)OCC(C)(C)CCCCCN(CCO)CCCCCCCC(=O)OC(CCCCCCCCC)CCCCCCCCC [16b] | 101.90 | 0.028 | 89.09 | 1.28E+11
CCCCCCCCCCC(=O)OCC(C)(C)CCCCCN(CCCCO)CCCCCCCC(=O)OC(CCCCCCCCC)CCCCCCCCC [17b] | 109.87 | 0.030 | 87.72 | 1.74E+11
CCCCCCCCCCOC(=O)CCCCCCCN(CCO)CCCCCC(C)(C)COC(=O)C(CCCCCCCC)CCCCCCCC [18b] | 100.46 | 0.037 | 89.34 | 3.91E+10
CCCCCCCCCCCOC(=O)CCCCCN(CCO)CCCCCC(C)(C)CC(=O)OC(CCCCCCCC)CCCCCCCC [19a] | 109.37 | 0.035 | 87.90 | 4.73E+10
CCCCCCCCCCOC(=O)CCCCCCCN(CCO)CCCCCC(C)(C)COC(=O)CC(CCCCCCC)CCCCCCC [19b] | 109.53 | 0.036 | 83.01 | 6.13E+10
CCCCCCCCCCOC(=O)CCCCCCCN(CCO)CCCCCC(C)(C)COC(=O)CCC(CCCCCC)CCCCCC [20b] | 107.83 | 0.032 | 87.69 | 4.82E+10
CCCCCCCCC(CCCCCCCC)OC(=O)C(C)(C)CCCCCCN(CCO)CCCCCC(=O)OCCCCCCCCCC(C)C [21a] | 110.00 | 0.016 | 88.37 | 8.84E+10
CCCCCCCCCCC(=O)OCC1(CCCCCN(CCO)CCCCCCCC(=O)OC(CCCCCCCCC)CCCCCCCCC)CC1 [21b] | 94.58 | 0.051 | 92.37 | 4.95E+10
